Reference: patent US20180163178A1, “AUF1 ENCODING COMPOSITIONS FOR MUSCLE CELL UPTAKE, SATELLITE CELL POPULATIONS, AND SATELLITE CELL MEDIATED MUSCLE GENERATION” (priority 2015, published 2018)

Experiments:
[1] = tested on: PAX7+ satellite cell population
Protocol: (§1) Male and female mice 4-6 months of age were injected by 20 uL 1.2% BaCl2 in saline directly to the left TA muscle. Right TA muscle was left uninjured. Mice were monitored and sacrificed by protocol for 1-30 days post-injection. 2 mice per genotype per time point were studied.
Male and female mice 4-6 months of age had their TA removed and preserved in OCT. Skeletal muscle samples were prepared as previously described (Bernet et al., “p38 MAPK Signaling Underlies a Cell-autonomous Loss of Stem Cell Self-renewal in Skeletal Muscle of Aged Mice,” Nature Medicine 20:265-271 (2014), which is hereby incorporated by reference in its entirety). Samples were post-fixed in 4% paraformaldehyde and blocked in 3% BSA in TBS-T. Primary antibodies were incubated at 4° C. overnight. Alexa Fluor donkey 488, 555, and 647 secondary antibodies were used at 1:500 and incubated for 1 hour at room temperature. Slides were sealed with Vectashield with DAPI. The following antibody dilutions were used: rat antibody to Laminin (Sigma, L0663, 1:250), mouse antibody to PAX7 (Santa Cruz Biotechnology, SC-81648, 1:500), goat antibody to hnRNPD (Santa Cruz Biotechnology, SC-22368, 1:250).
Images were acquired using a Zeiss LSM 700 confocal microscope, primarily with the 20× lens. Images were processed and scored using ImageJ64. If needed, color balance was adjusted linearly for the entire image and all images in experimental set. All images were quantified based on field of view. At least 5 images per experimental animal and at least 2 animals per genotype were used for all experiments.
(§2) KO male and female mice 4 months of age were given an IP injection with 25 mg/kg SB-3CT (Sigma-Aldrich) every 24 h, starting 24 h prior to BaCl2 injury with MMPSense injection. Three mice per treatment were analyzed, then means and standard deviations calculated. Data were analyzed with an unpaired t-test.

[2] = molecular target: MMP9 (Mus musculus, UniProt P41245); settings: auf1 KO mice
Chain of MMP9 (P41245 108-730): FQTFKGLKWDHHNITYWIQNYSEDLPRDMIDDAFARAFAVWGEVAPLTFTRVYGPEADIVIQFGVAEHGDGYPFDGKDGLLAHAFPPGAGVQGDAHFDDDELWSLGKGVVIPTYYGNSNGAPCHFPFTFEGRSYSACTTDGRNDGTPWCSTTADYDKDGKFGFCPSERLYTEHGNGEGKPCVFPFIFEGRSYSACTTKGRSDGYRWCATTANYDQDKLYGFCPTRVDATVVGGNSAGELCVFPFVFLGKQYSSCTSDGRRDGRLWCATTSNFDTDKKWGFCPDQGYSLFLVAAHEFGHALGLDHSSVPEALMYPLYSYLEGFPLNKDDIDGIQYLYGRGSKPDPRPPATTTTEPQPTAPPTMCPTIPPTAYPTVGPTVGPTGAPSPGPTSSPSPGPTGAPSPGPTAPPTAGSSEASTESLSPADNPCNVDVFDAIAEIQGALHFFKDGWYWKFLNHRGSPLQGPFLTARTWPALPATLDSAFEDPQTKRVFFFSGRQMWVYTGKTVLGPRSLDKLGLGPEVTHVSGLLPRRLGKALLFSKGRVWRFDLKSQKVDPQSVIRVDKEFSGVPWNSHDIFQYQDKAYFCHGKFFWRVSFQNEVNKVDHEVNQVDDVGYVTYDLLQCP
Protocol: as §1
Data were analyzed with an unpaired t-test.
as §2

O=S(=O)(CC1CS1)c1ccc(Oc2ccccc2)cc1 (centres unmarked) [SB-3CT]
expansion of the PAX7+ satellite cell population (FIG. 11C) ([1]; SB-3CT treated auf1 KO mice, 7 days post-injury): significant increased expansion
increase in the PAX7+ satellite cell population (FIG. 11D) ([1]; auf1 KO mice, SB-3CT treatment, 7 days post-injury, vs untreated KO): ~4 fold
muscle wound repair ([1]; injured auf1 KO mice, SB-3CT treatment): restoration of muscle wound repair
muscle fiber morphology (FIG. 11C) ([1]; injured, SB-3CT treated auf1 KO mice): near-normal muscle fibers were evident
Laminin expression (FIG. 11C) ([1]; injured, SB-3CT treated auf1 KO mice, 7 days post-injury): strongly increased
reduction in MMP9 activity (bioluminescence analysis, FIG. 11B) ([2]; SB-3CT IP daily from 24 h prior to BaCl2 TA injury, injured TA 24 h post-injury, vs untreated KO): > 5 fold
MMP9 activity at the site of IP injection (FIG. 11A) ([2]; SB-3CT IP daily, IVIS imaging): near complete extinction of MMP9 activity
MMP9 activity in the injured TA muscle (FIG. 11A) ([2]; SB-3CT IP daily, IVIS imaging 24 h after injury): significantly reduced MMP9 activity
